Laboratory results: patent US12104178B2, “DHFR tunable protein regulation” (Obsidian Therapeutics, Inc., priority 2017, dated 2024)
Like-named read-outs stand apart in the source and are kept apart here.

How the values were obtained:
[1] = test system: HEK-293T cells; test: DD-IL15 induction, human IL15 ELISA (Table 80); type: cell-based; conditions: DD-IL15 (OT-IL15-002, ecDHFR-IL15) in HEK-293T, TMP 24 hrs
Procedure: To test ligand dependent IL15 production, 1 million HEK-293T cells were plated in a 6-well plate in growth media containing DMEM and 10% FBS and incubated overnight at 37° C. at 5% CO2. Cells were then transfected with 100 ng of OT-IL15-001(constitutive) or OT-IL15-002 (ecDHFR-IL15) using Lipofectamine 2000 and incubated for 48 hrs. […] Media was collected and the undiluted samples or samples diluted 4, 16, 256, 1024, 4096 or 16384-fold were tested using human IL15 ELISA. The stabilization ratio was defined as fold change in IL15 expression with ligand treatment compared to treatment with DMSO (i.e. in the absence of ligand) with the same construct.

[2] = test system: T cells; test: TMP dose and exposure time on membrane bound IL15 expression (Table 89); type: cell-based; conditions: T-cell
Procedure: For this purpose, T cells were activated with CD3/CD28 beads at 3:1 bead to T cell ratio in 24-well plates for 24 hrs. Lentivirus was added to wells. After 24 hrs, fresh media was added every 2-3 days to expand cells while maintaining cells at 0.5-1×10^6/ml. On day 11 of expansion.

[3] = test system: T cells; conditions: human, 160 μM
Procedure: The percentage of divided cells within the CD4 and the CD8 populations of T cells was measured using FACS.

[4] = in vivo; conditions: Balb/C nu/nu, mouse, plasma
[5] = test system: NK-92 cells; test: NK-92 activation markers with IL15 (Tables 82, 84); type: cell-based; conditions: for pSTAT5 (15 mins) / pSTAT5 (60 mins) / CD69 / CXCR4 / Granzyme B / IFNgamma / Perforin: NK-92 cells, fold change; for pSTAT5 (15 mins) / pSTAT5 (60 mins): FACS; for CD69 / CXCR4 / Granzyme B / IFNgamma / Perforin: activation marker by FACS
Procedure: (§1) The dependency of the NK-92 cells on cytokines for activation was tested. […] The cells were cultured for 18 hours in the presence of IL12 (10 ng/ml) or varying concentrations of IL15 (100 ng/ml, 20 ng/ml, 4 ng/ml, 0.8 ng/ml, 0.16 ng/ml, 0.032 ng/ml, 0.0064 ng/ml and 0.00128 ng/ml). NK-92 cell activation in response to IL15 and IL12 treatment was evaluated by FACS analysis using a panel of markers whose increased expression is associated with NK activation. These include NKG2D, CD71, CD69; chemokine receptors such as CCR5, CXCR4, and CXCR3, Perforin, Granzyme B and Interferon gamma (IFNg). Prior to FACS analysis for IFNg, cells were cultured for 4 hours with Brefeldin A. NK cells respond to external stimuli such as cytokines in their environment through the phosphorylation of proteins JAK/STAT, ERK, and p38/MAPK pathways which are important for cell activation, signaling and differentiation pathways. The phosphorylation of AKT, STAT3 and STAT5 in response to cytokine addition was measured by FACS. Since phosphorylation events are transient NK-92 cells were treated with the cytokines for 15 or 60 minutes, prior to the analysis.
as §1, with “of” for “of IL12 (10 ng/ml) or”, “IL15” for “IL15 and IL12”, “Perform,” for “Perforin,”

[6] = test system: NK-92 cells; test: Cytokine dependent proliferation of NK-92, Jurkat and SupT1 cells; type: cell-based; conditions: 3 days
Procedure: The dependency of immune cells on cytokines for proliferation was tested in NK-92 cells and T cell lines Jurkat cells and SupT1 cells. Cells were seeded at 40,000 per well and cultured in the presence of IL2 or IL15 for 3 days.

In the case of `COc1cc(Cc2cnc(N)nc2N)cc(OC)c1OC` [TMP, Trimethoprim], the “IL15 ELISA reading, 10 μM TMP” value ([1]; media dilution 1-fold) is reported as 0.820, the “IL15 ELISA reading, 10 μM TMP” value ([1]; media dilution 4-fold) is reported as 0.287 and the “IL15 ELISA reading, 10 μM TMP” value ([1]; media dilution 16-fold) is reported as 0.116. For the same compound, the “IL15 ELISA reading, 10 μM TMP” value ([1]; media dilution 64-fold) was 0.073, the “IL15 ELISA reading, 10 μM TMP” value ([1]; media dilution 256-fold) was 0.057 and the “IL15 ELISA reading, 10 μM TMP” value ([1]; media dilution 1024-fold) was 0.048. The “IL15 ELISA reading, 10 μM TMP” value ([1]; media dilution 4096-fold) was 0.049, the “IL15 ELISA reading, 10 μM TMP” value ([1]; media dilution 16384-fold) was 0.049 and the EC50 ([2]; 6 h, read-out: EC50, uM (% IL15 + IL15Ra+)) was 0.021 µM. The EC50 ([2]; 6 h, read-out: EC50, uM (total IL15 MFI)) was 0.03 µM, the EC90 ([2]; 6 h, read-out: EC90, uM (% IL15 + IL15Ra+)) was 0.81 µM and the EC90 ([2]; 6 h, read-out: EC90, uM (total IL15 MFI)) was 0.88 µM. It also gave an EC50 ([2]; 24 h, read-out: EC50, uM (% IL15 + IL15Ra+)) of 0.035 µM, an EC50 ([2]; 24 h, read-out: EC50, uM (total IL15 MFI)) of 0.063 µM and an EC90 ([2]; 24 h, read-out: EC90, uM (% IL15 + IL15Ra+)) of 0.255 µM. It also gave an EC90 ([2]; 24 h, read-out: EC90, uM (total IL15 MFI)) of 0.75 µM, an EC50 ([2]; read-out: EC50, uM (% IL15 + IL15Ra+)) of 11.5 µM and an EC50 ([2]; read-out: EC50, uM (total IL15 MFI)) of 11.1 µM. The EC90 ([2]; read-out: EC90, uM (% IL15 + IL15Ra+)) was 59.6 µM, the EC90 ([2]; read-out: EC90, uM (total IL15 MFI)) was 66.9 µM and the “TMP concentration in the plasma at early time points” value (100 mg/kg) was 50 to 100 µM. For the same compound, the “TMP concentration in the plasma at early time points” value (300 mg/kg) was 100 to 150 µM, the “TMP levels in the plasma 4 hours after dosing” value (all doses) was “Virtually no TMP levels were detected” and the “Reduction in the percentage of divided cells” value [3] was 70-90%. For the same compound, the concentration at 0.083 h ([4]; 30 mg/kg) was 25.7 µM, the concentration at 0.25 h ([4]; 30 mg/kg) was 19.6 µM and the concentration at 0.5 h ([4]; 30 mg/kg) was 9.84 µM. The concentration at 1 h ([4]; 30 mg/kg) was 2.55 µM, the concentration at 2 h ([4]; 30 mg/kg) was 1.19 µM and the concentration at 4 h ([4]; 30 mg/kg) was 0.16 µM. The concentration at 8 h ([4]; 30 mg/kg) was 0.04 µM, the concentration at 0.083 h ([4]; 100 mg/kg) was 81.5 µM and the concentration at 0.25 h ([4]; 100 mg/kg) was 78.1 µM. It also gave a concentration at 0.5 h ([4]; 100 mg/kg) of 58.8 µM, a concentration at 1 h ([4]; 100 mg/kg) of 27.6 µM and a concentration at 2 h ([4]; 100 mg/kg) of 2.97 µM. It also gave a concentration at 8 h ([4]; 100 mg/kg) of 0.56 µM, a concentration at 24 h ([4]; 100 mg/kg) of 0.01 µM and a concentration at 0.083 h ([4]; 300 mg/kg) of 117 µM. For the same compound, the concentration at 0.25 h ([4]; 300 mg/kg) was 137 µM, the concentration at 0.5 h ([4]; 300 mg/kg) was 128 µM and the concentration at 1 h ([4]; 300 mg/kg) was 80 µM. It also gave a concentration at 2 h ([4]; 300 mg/kg) of 32.6 µM, a concentration at 4 h ([4]; 300 mg/kg) of 1.03 µM and a concentration at 8 h ([4]; 300 mg/kg) of 0.3 µM. The concentration at 24 h ([4]; 300 mg/kg) was 0.01 µM.

In the case of IL15: cytokine added to NK-92 cells, the “NK-92 activation marker expression” value ([5]; IL15 0.00128-100 ng/ml, 18 h) is reported as “increase in the expression of CD69, CXCR4, Perforin, Granzyme B, and IFNg”, the “pSTAT5 (15 mins)” value ([5]; IL15 0.00128 ng/ml) is reported as 0.99 and the “pSTAT5 (60 mins)” value ([5]; IL15 0.00128 ng/ml) is reported as 1.04. For the same compound, the CD69 ([5]; IL15 0.00128 ng/ml) was 1.07, the CXCR4 ([5]; IL15 0.00128 ng/ml) was 1.15 and the “Granzyme B” value ([5]; IL15 0.00128 ng/ml) was 0.88. The IFNgamma ([5]; IL15 0.00128 ng/ml) was 1.19, the Perforin ([5]; IL15 0.00128 ng/ml) was 0.85 and the “pSTAT5 (15 mins)” value ([5]; IL15 0.0064 ng/ml) was 1.03. For the same compound, the “pSTAT5 (60 mins)” value ([5]; IL15 0.0064 ng/ml) was 1.26, the CD69 ([5]; IL15 0.0064 ng/ml) was 1.11 and the CXCR4 ([5]; IL15 0.0064 ng/ml) was 1.19. For the same compound, the “Granzyme B” value ([5]; IL15 0.0064 ng/ml) was 0.78, the IFNgamma ([5]; IL15 0.0064 ng/ml) was 0.85 and the Perforin ([5]; IL15 0.0064 ng/ml) was 0.79. For the same compound, the “pSTAT5 (15 mins)” value ([5]; IL15 0.032 ng/ml) was 1.23, the “pSTAT5 (60 mins)” value ([5]; IL15 0.032 ng/ml) was 1.67 and the CD69 ([5]; IL15 0.032 ng/ml) was 1.05. The CXCR4 ([5]; IL15 0.032 ng/ml) was 1.14, the “Granzyme B” value ([5]; IL15 0.032 ng/ml) was 0.92 and the IFNgamma ([5]; IL15 0.032 ng/ml) was 0.95. The Perforin ([5]; IL15 0.032 ng/ml) was 0.92, the “pSTAT5 (15 mins)” value ([5]; IL15 0.8 ng/ml) was 1.76 and the “pSTAT5 (60 mins)” value ([5]; IL15 0.8 ng/ml) was 2.17. For the same compound, the CD69 ([5]; IL15 0.8 ng/ml) was 1.18, the CXCR4 ([5]; IL15 0.8 ng/ml) was 2.10 and the “Granzyme B” value ([5]; IL15 0.8 ng/ml) was 1.09. The IFNgamma ([5]; IL15 0.8 ng/ml) was 1.92, the Perforin ([5]; IL15 0.8 ng/ml) was 1.16 and the “pSTAT5 (15 mins)” value ([5]; IL15 4 ng/ml) was 1.81. For the same compound, the “pSTAT5 (60 mins)” value ([5]; IL15 4 ng/ml) was 2.35, the CD69 ([5]; IL15 4 ng/ml) was 1.59 and the CXCR4 ([5]; IL15 4 ng/ml) was 3.03. The “Granzyme B” value ([5]; IL15 4 ng/ml) was 1.16, the IFNgamma ([5]; IL15 4 ng/ml) was 2.76 and the Perforin ([5]; IL15 4 ng/ml) was 1.28. For the same compound, the “pSTAT5 (15 mins)” value ([5]; IL15 20 ng/ml) was 1.96, the “pSTAT5 (60 mins)” value ([5]; IL15 20 ng/ml) was 2.35 and the CD69 ([5]; IL15 20 ng/ml) was 2.10. The CXCR4 ([5]; IL15 20 ng/ml) was 3.62, the “Granzyme B” value ([5]; IL15 20 ng/ml) was 1.40 and the IFNgamma ([5]; IL15 20 ng/ml) was 5.55. The Perforin ([5]; IL15 20 ng/ml) was 1.57, the “pSTAT5 (15 mins)” value ([5]; IL15 100 ng/ml) was 1.98 and the “pSTAT5 (60 mins)” value ([5]; IL15 100 ng/ml) was 2.34. The CD69 ([5]; IL15 100 ng/ml) was 1.91, the CXCR4 ([5]; IL15 100 ng/ml) was 3.87 and the “Granzyme B” value ([5]; IL15 100 ng/ml) was 1.48. The IFNgamma ([5]; IL15 100 ng/ml) was 9.00, the Perforin ([5]; IL15 100 ng/ml) was 1.67 and the NK-92 cell numbers [6] was “increased cell numbers”.
